Ten compounds from US8653100B2 (AbbVie Inc., priority 2008, dated 2014) can be followed below.

Where a name gives a salt, the structure may show the parent alone.

human GlyT1c transporter, sequence (P48067 whole entry): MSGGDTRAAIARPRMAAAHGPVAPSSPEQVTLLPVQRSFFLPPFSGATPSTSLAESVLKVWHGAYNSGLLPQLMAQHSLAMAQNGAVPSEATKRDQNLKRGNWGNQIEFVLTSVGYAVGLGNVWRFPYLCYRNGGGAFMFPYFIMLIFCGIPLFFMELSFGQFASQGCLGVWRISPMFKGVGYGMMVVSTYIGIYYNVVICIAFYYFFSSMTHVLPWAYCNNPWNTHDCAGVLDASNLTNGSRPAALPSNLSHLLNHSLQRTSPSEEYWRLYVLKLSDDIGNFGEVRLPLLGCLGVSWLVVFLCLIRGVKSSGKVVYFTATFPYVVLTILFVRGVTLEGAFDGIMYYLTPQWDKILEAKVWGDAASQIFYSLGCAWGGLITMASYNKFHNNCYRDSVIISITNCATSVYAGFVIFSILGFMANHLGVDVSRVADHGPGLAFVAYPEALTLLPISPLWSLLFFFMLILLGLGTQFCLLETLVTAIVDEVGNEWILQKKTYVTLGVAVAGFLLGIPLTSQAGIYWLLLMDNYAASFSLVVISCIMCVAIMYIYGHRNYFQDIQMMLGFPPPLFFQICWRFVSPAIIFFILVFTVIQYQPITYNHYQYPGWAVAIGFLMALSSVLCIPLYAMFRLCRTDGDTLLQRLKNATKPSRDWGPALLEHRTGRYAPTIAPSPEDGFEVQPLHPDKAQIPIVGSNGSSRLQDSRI

For the experiment, the target named is human GlyT1c transporter (Homo sapiens (Human), UniProt P48067). As to the kind of experiment: Radioligand binding assay using recombinant CHO cell membranes expressing human GlyT1. Particulars: examples 88-204, radioligand not specified by footnote, read-out: radioligand binding Kiapp. On the procedure:
2. Radioligand binding assays using recombinant CHO cell membranes expressing human GlyT1:
Radioligand binding to human GlyT1c transporter-expressing membranes was carried out as described in Mezler et al., Molecular Pharmacology 74:1705-1715, 2008.
More specifically, [^3H]-(R)-NPTS radioligand binding to human GlyT1c transporter-expressing membranes was measured in duplicate in a total volume of 200 μl in 96-well plates. To 100 μl of membrane suspension (yielding a final membrane protein concentration of 50 μg/ml) in assay buffer (120 mM NaCl, 2 mM KCl, 10 mM Hepes, 1 mM MgCl2, 1 mM CaCl2, pH 7.5) […] of [^3H]-(R)-NPTS (0.5 nM final) were added in assay buffer. For competition experiments 10 μl of buffer or unlabeled compound solution obtained from dilution series of test compounds in DMSO followed. An intermediate 1:10 dilution in assay buffer yielded a final DMSO concentration of 1%. Non-specific binding was determined in the presence of 10 μM Org24598 (or its racemate Org24461) for [^3H]-(R)-NPTS. After incubation at room temperature for 1 h, the incubation mixture was harvested (Tomtec Mach III U Harvester) through 96-well GF/B filter plates (PerkinElmer), presoaked for 1 h with 40 μl per well of 0.1% polyethylene-imine (PEI). After washing twice with ice-cold 50 mM Tris-HCl pH 7.4 buffer, drying and addition of 35 μl scintillator (BetaplateScint, PerkinElmer) per well followed. The radioactivity was determined by liquid scintillation spectrometry in a MicroBeta (PerkinElmer) plate counter.
Data analysis: For binding of [^3H]-(R)-NPTS to cell membranes, the calculation of Kd and Bmax values from the saturation binding assays and the IC50 values from the displacement binding was performed by iterative non-linear regression analysis adapted from the ‘Ligand’ program (Munson and Rodbard, 1980). Radioligand displacement curves in absence or in presence of increasing concentrations of tested compounds were fitted using a one-site fit and the apparent Ki values were calculated from the IC50 values using the Cheng-Prusoff equation (Cheng and Prusoff 1973).
With `Cn1cc(S(=O)(=O)NCCOc2ccc3c(c2)C(C2(c4ccc(Cl)cc4)CC(F)(F)C2)NCC3)cn1` (single isomer, unassigned) [Example 138, N-[2-({1-[1-(4-Chlorophenyl)-3,3-difluorocyclobutyl]-1,2,3,4-tetrahydroisoquinolin-7-yl}oxy)ethyl]-1-methyl-1H-pyrazole-4-sulfonamide], the Ki was at most 100 nM.
The value for `O=S(=O)(NCCOc1ccc2c(c1)C(C1(c3ccc(Cl)cc3)CCC1)NCC2)C1CCNC1` (single isomer, unassigned) [Example 148, N-[2-({1-[1(4-Chlorophenyl)cyclobutyl]-1,2,3,4-tetrahydroisoquinolin-7-yl}oxy)ethyl]pyrrolidine-3-sulfonamide dihydrochloride] was at most 100 nM; that for `O=S(=O)(NCCOc1ccc2c(c1)C(C1(c3ccc(Cl)cc3)CCC1)NCC2)C1CCNC1` (single isomer, unassigned) [Example 151, N-[2-({1-[1-(4-Chlorophenyl)cyclobutyl]-1,2,3,4-tetrahydroisoquinolin-7-yl}oxy)ethyl]pyrrolidine-3-sulfonamide dihydrochloride] was at most 100 nM; that for `NCCS(=O)(=O)NCCOc1ccc2c(c1)C(C1(c3ccc(Cl)cc3)CCC1)NCC2` (single isomer, unassigned) [Example 158, 2-Amino-N-[2-({1-[1-(4-chlorophenyl)cyclobutyl]-1,2,3,4-tetrahydroisoquinolin-7-yl}oxy)ethyl]ethanesulfonamide dihydrochloride] was at most 100 nM.
Take `O=S(=O)(NCCOc1ccc2c(c1)C(C1(c3ccc(Cl)cc3)CCC1)NCC2)C1CCCNC1` (single isomer, unassigned) [Example 160, N-[2-({1-[1-(4-Chlorophenyl)cyclobutyl]-1,2,3,4-tetrahydroisoquinolin-7-yl}oxy)ethyl]piperidine-3-sulfonamide dihydrochloride]: the Ki was at most 100 nM.
Next, `O=S(=O)(NCCOc1ccc2c(c1)C(C1(c3ccc(Cl)cc3)CCC1)NCC2)C1CCCNC1` (single isomer, unassigned) [Example 164, N-[2-({1-[1-(4-Chlorophenyl)cyclobutyl]-1,2,3,4-tetrahydroisoquinolin-7-yl}oxy)ethyl]piperidine-3-sulfonamide dihydrochloride]: at most 1000 nM; `Cn1cc(S(=O)(=O)NCCOc2ccc3c(c2)C(C2(c4ccc(Cl)cc4)CC(F)(F)C2)NCC3)cn1` (single isomer, unassigned) [Example 168, N-[2-({1-[1-(4-Chlorophenyl)-3,3-difluorocyclobutyl]-1,2,3,4-tetrahydroisoquinolin-7-yl}oxy)ethyl]-1-methyl-1H-pyrazole-4-sulfonamide]: at most 1000 nM.
In the case of `O=S(=O)(NCCOc1ccc2c(c1)C(C1(c3ccc(Cl)cc3)CCC1)NCC2)C1CCNC1` (single isomer, unassigned) [Example 172, N-[2-({1-[1-(4-Chlorophenyl)cyclobutyl]-1,2,3,4-tetrahydroisoquinolin-7-yl}oxy)ethyl]pyrrolidine-3-sulfonamide dihydrochloride], the Ki was at most 10000 nM.
The value for `O=S(=O)(NCCOc1ccc2c(c1)C(C1(c3ccc(Cl)cc3)CCC1)NCC2)C1CCNC1` (single isomer, unassigned) [Example 175, N-[2-({1-[1-(4-Chlorophenyl)cyclobutyl]-1,2,3,4-tetrahydroisoquinolin-7-yl}oxy)ethyl]pyrrolidine-3-sulfonamide dihydrochloride] was at most 10000 nM; that for `O=S(=O)(NCCOc1ccc2c(c1)C(C1(c3ccc(Cl)cc3)CCC1)NCC2)C1CCCNC1` (single isomer, unassigned) [Example 192, N-[2-({1-[1-(4-Chlorophenyl)cyclobutyl]-1,2,3,4-tetrahydroisoquinolin-7-yl}oxy)ethyl]piperidine-3-sulfonamide dihydrochloride] was at most 10000 nM.
